From PMC5218480 (PLoS ONE, 2017) come the findings set out here.

The subject of the test is MV-4-11 cells. The test can be described thus: Gene expression microarray analysis (Affymetrix PrimeView) and GSEA. It is filed as cell-based, human. The arrangement: RFU PODN (11730768_x_at) / Fold change /veh PODN (11730768_x_at) / RFU LINC00158 (11744669_a_at) / Fold change /veh LINC00158 (11744669_a_at) / RFU DUSP10 (11751237_a_at) / Fold change /veh DUSP10 (11751237_a_at) / RFU ID3 (11757404_x_at) / Fold change /veh ID3 (11757404_x_at) / RFU PLEKHG5 (11737974_s_at) / Fold change /veh PLEKHG5 (11737974_s_at) / RFU LRRC4B (11730491_at) / Fold change /veh LRRC4B (11730491_at) / RFU GIMAP4 (11747438_a_at) / Fold change /veh GIMAP4 (11747438_a_at) / RFU KRT8 (11758183_x_at) / Fold change /veh KRT8 (11758183_x_at) / RFU CNN1 (11734310_a_at) / Fold change /veh CNN1 (11734310_a_at) / RFU VPS37D (11726825_at) / Fold change /veh VPS37D (11726825_at) / RFU C10orf10 (11716522_x_at) / Fold change /veh C10orf10 (11716522_x_at) / RFU KIR2DL2 /// KIR2DL4 /// KIR2DL5A /// KIR2DL5B /// KIR2DS1 /// KIR2DS2 /// KIR2DS3 /// KIR2DS4 /// KIR3DL3 /// KIR3DL3 /// KIR3DS1 (11738374_at) / Fold change /veh KIR2DL2 /// KIR2DL4 /// KIR2DL5A /// KIR2DL5B /// KIR2DS1 /// KIR2DS2 /// KIR2DS3 /// KIR2DS4 /// KIR3DL3 /// KIR3DL3 /// KIR3DS1 (11738374_at) / RFU C1QL1 (11718748_at) / Fold change /veh C1QL1 (11718748_at) / RFU TMPRSS4 (11747572_a_at) / Fold change /veh TMPRSS4 (11747572_a_at) / RFU HAMP (11756126_x_at) / Fold change /veh HAMP (11756126_x_at) / RFU RNFT2 (11725882_a_at) / Fold change /veh RNFT2 (11725882_a_at) / RFU NR4A2 (11747474_a_at) / Fold change /veh NR4A2 (11747474_a_at) / RFU ABCC12 (11746883_a_at) / Fold change /veh ABCC12 (11746883_a_at) / RFU TMEM136 (11760407_x_at) / Fold change /veh TMEM136 (11760407_x_at) / RFU CLDN22 /// WWC2 (11732394_at) / Fold change /veh CLDN22 /// WWC2 (11732394_at) / RFU HLA-DPB1 (11760878_x_at) / Fold change /veh HLA-DPB1 (11760878_x_at) / RFU SPINT1 (11716480_a_at) / Fold change /veh SPINT1 (11716480_a_at) / RFU GAP43 (11754022_s_at) / Fold change /veh GAP43 (11754022_s_at) / RFU A4GNT (11735810_at) / Fold change /veh A4GNT (11735810_at) / RFU PRB3 (11715151_x_at) / Fold change /veh PRB3 (11715151_x_at) / RFU TUBB4B (11761932_at) / Fold change /veh TUBB4B (11761932_at) / RFU CAPN14 (11732068_a_at) / Fold change /veh CAPN14 (11732068_a_at) / RFU TMCC2 (11721928_a_at) / Fold change /veh TMCC2 (11721928_a_at) / RFU IRGQ (11745062_a_at) / Fold change /veh IRGQ (11745062_a_at) / RFU FAM174B (11720279_a_at) / Fold change /veh FAM174B (11720279_a_at) / RFU TMPRSS4 (11748680_a_at) / Fold change /veh TMPRSS4 (11748680_a_at) / RFU FAM212B (11763350_a_at) / Fold change /veh FAM212B (11763350_a_at) / RFU PLEKHG5 (11743358_a_at) / Fold change /veh PLEKHG5 (11743358_a_at) / RFU ZSCAN30 (11745921_a_at) / Fold change /veh ZSCAN30 (11745921_a_at) / RFU CMKLR1 (11741424_a_at) / Fold change /veh CMKLR1 (11741424_a_at) / RFU LOC101060620 /// MAPK8IP1 (11723275_at) / Fold change /veh LOC101060620 /// MAPK8IP1 (11723275_at) / RFU SPTSSB (11747773_x_at) / Fold change /veh SPTSSB (11747773_x_at) / RFU PRSS12 (11739890_at) / Fold change /veh PRSS12 (11739890_at) / RFU BIN1 (11741810_x_at) / Fold change /veh BIN1 (11741810_x_at) / RFU WNT11 (11732464_a_at) / Fold change /veh WNT11 (11732464_a_at) / RFU C10orf10 (11716521_a_at) / Fold change /veh C10orf10 (11716521_a_at) / RFU C5orf56 (11738089_at) / Fold change /veh C5orf56 (11738089_at) / RFU CYB561 (11721691_x_at) / Fold change /veh CYB561 (11721691_x_at) / RFU ANKRD19P (11752326_a_at) / Fold change /veh ANKRD19P (11752326_a_at) / RFU OR2T12 /// OR2T33 /// OR2T8 (11738714_s_at) / Fold change /veh OR2T12 /// OR2T33 /// OR2T8 (11738714_s_at) / RFU VCAN (11748164_a_at) / Fold change /veh VCAN (11748164_a_at) / RFU JSRP1 (11732532_at) / Fold change /veh JSRP1 (11732532_at) / RFU KRTAP10-11 (11738290_x_at) / Fold change /veh KRTAP10-11 (11738290_x_at) / RFU MYO3A (11730013_a_at) / Fold change /veh MYO3A (11730013_a_at) / RFU EBF3 (11725865_a_at) / Fold change /veh EBF3 (11725865_a_at) / RFU CAMK2N1 (11719241_x_at) / Fold change /veh CAMK2N1 (11719241_x_at) / RFU C5orf56 (11738088_a_at) / Fold change /veh C5orf56 (11738088_a_at) / RFU OLFML3 (11715873_a_at) / Fold change /veh OLFML3 (11715873_a_at) / RFU LOC100653217 /// NTM (11731650_a_at) / Fold change /veh LOC100653217 /// NTM (11731650_a_at) / RFU MAPK11 (11762145_a_at) / Fold change /veh MAPK11 (11762145_a_at) / RFU FIZ1 (11724087_x_at) / Fold change /veh FIZ1 (11724087_x_at) / RFU OASL (11726364_x_at) / Fold change /veh OASL (11726364_x_at) / RFU SOX15 (11748057_x_at) / Fold change /veh SOX15 (11748057_x_at) / RFU CD79A (11719716_a_at) / Fold change /veh CD79A (11719716_a_at) / RFU HIST1H1D (11736915_at) / Fold change /veh HIST1H1D (11736915_at) / RFU CASKIN2 (11723855_a_at) / Fold change /veh CASKIN2 (11723855_a_at) / RFU LOC730098 (11760151_x_at) / Fold change /veh LOC730098 (11760151_x_at) / RFU OR4N2 (11742367_at) / Fold change /veh OR4N2 (11742367_at) / RFU PRRT2 (11749266_a_at) / Fold change /veh PRRT2 (11749266_a_at) / RFU SNX32 (11753110_a_at) / Fold change /veh SNX32 (11753110_a_at) / RFU CDHR5 (11726645_a_at) / Fold change /veh CDHR5 (11726645_a_at) / RFU RCAN1 (11760418_a_at) / Fold change /veh RCAN1 (11760418_a_at) / RFU FAM167A (11723789_a_at) / Fold change /veh FAM167A (11723789_a_at) / RFU FAM26E (11764081_at) / Fold change /veh FAM26E (11764081_at) / RFU ISYNA1 (11749810_s_at) / Fold change /veh ISYNA1 (11749810_s_at) / RFU ACY1 (11761880_at) / Fold change /veh ACY1 (11761880_at) / RFU 11764098_at / Fold change /veh 11764098_at / RFU SAMD14 (11745864_x_at) / Fold change /veh SAMD14 (11745864_x_at) / RFU NPB (11741838_a_at) / Fold change /veh NPB (11741838_a_at) / RFU TMPRSS6 (11731388_a_at) / Fold change /veh TMPRSS6 (11731388_a_at) / RFU KRTAP10-2 (11738614_at) / Fold change /veh KRTAP10-2 (11738614_at) / RFU ARHGAP8 /// PRR5-ARHGAP8 (11727945_x_at) / Fold change /veh ARHGAP8 /// PRR5-ARHGAP8 (11727945_x_at) / RFU KRTAP5-7 /// NADSYN1 (11734609_at) / Fold change /veh KRTAP5-7 /// NADSYN1 (11734609_at) / RFU RASL12 (11751679_a_at) / Fold change /veh RASL12 (11751679_a_at) / RFU CDKN2B (11736163_a_at) / Fold change /veh CDKN2B (11736163_a_at) / RFU PRF1 (11729649_at) / Fold change /veh PRF1 (11729649_at) / RFU, ZNF638 /// ZNF638-IT1 / Fold change vs veh, ZNF638 /// ZNF638-IT1 / RFU, PANK3 / Fold change vs veh, PANK3 / RFU, SH3YL1 / Fold change vs veh, SH3YL1 / RFU, ZEB2 / Fold change vs veh, ZEB2 / RFU, NRIP1 / Fold change vs veh, NRIP1 / RFU, PTTG1IP / Fold change vs veh, PTTG1IP / RFU, CAPN2 / Fold change vs veh, CAPN2 / RFU, MED14 / Fold change vs veh, MED14 / RFU, SNORA58 / Fold change vs veh, SNORA58 / RFU, C1orf63 / Fold change vs veh, C1orf63 / RFU, LRRFIP1 / Fold change vs veh, LRRFIP1 / RFU, NDUFAF7 / Fold change vs veh, NDUFAF7 / RFU, SLC12A2 / Fold change vs veh, SLC12A2 / RFU, IBTK / Fold change vs veh, IBTK / RFU, ESF1 / Fold change vs veh, ESF1 / Fold change vs veh, TMEM50B / RFU, TAOK1 / Fold change vs veh, TAOK1 / RFU, ACBD3 / Fold change vs veh, ACBD3 / RFU, TMA16 / Fold change vs veh, TMA16 / RFU, RWDD3 / Fold change vs veh, RWDD3 / RFU, BCAT1 / Fold change vs veh, BCAT1 / RFU, EDEM3 / Fold change vs veh, EDEM3 / RFU, TMEM33 / Fold change vs veh, TMEM33 / RFU, WDR75 / Fold change vs veh, WDR75 / RFU, AHCTF1 / Fold change vs veh, AHCTF1 / RFU, TFRC / Fold change vs veh, TFRC / RFU, ZDHHC17 / Fold change vs veh, ZDHHC17 / RFU, NOM1 / Fold change vs veh, NOM1 / RFU, ARL8B / Fold change vs veh, ARL8B / RFU, ZBTB11 / Fold change vs veh, ZBTB11 / RFU, TAMM41 / Fold change vs veh, TAMM41 / RFU, KIAA1704 /// LOC100996395 / Fold change vs veh, KIAA1704 /// LOC100996395 / RFU, ING1 / Fold change vs veh, ING1 / RFU, TRMT61B / Fold change vs veh, TRMT61B / RFU, FUBP3 / Fold change vs veh, FUBP3 / RFU, TP53 / Fold change vs veh, TP53 / RFU, TNKS2 / Fold change vs veh, TNKS2 / RFU, ZFP14 / Fold change vs veh, ZFP14 / RFU, ACTR2 / Fold change vs veh, ACTR2 / RFU, PPP3R1 / Fold change vs veh, PPP3R1 / RFU, PIK3R1 / Fold change vs veh, PIK3R1 / RFU, HNRNPA1 / Fold change vs veh, HNRNPA1 / RFU, RNF170 / Fold change vs veh, RNF170 / RFU, ZNF28 / Fold change vs veh, ZNF28 / RFU, RNGTT / Fold change vs veh, RNGTT / RFU, OGT / Fold change vs veh, OGT / RFU, BRD1 / Fold change vs veh, BRD1 / RFU, MARS / Fold change vs veh, MARS / RFU, ZNF655 / Fold change vs veh, ZNF655 / RFU, FAHD1 / Fold change vs veh, FAHD1 / RFU, BDP1 / Fold change vs veh, BDP1 / RFU, LRRCC1 / Fold change vs veh, LRRCC1 / RFU, ARID1A / Fold change vs veh, ARID1A / RFU, ZNF146 / Fold change vs veh, ZNF146 / RFU, ZNF330 / Fold change vs veh, ZNF330 / RFU, GPN3 / Fold change vs veh, GPN3 / RFU, C9orf123 / Fold change vs veh, C9orf123 / RFU, N4BP2L2 / Fold change vs veh, N4BP2L2 / RFU, ARFIP1 / Fold change vs veh, ARFIP1 / RFU, FAM179B / Fold change vs veh, FAM179B / RFU, BCL10 / Fold change vs veh, BCL10 / RFU, UHRF1BP1L / Fold change vs veh, UHRF1BP1L / RFU, BET1 / Fold change vs veh, BET1 / RFU, CNOT2 / Fold change vs veh, CNOT2 / RFU, ZNF268 / Fold change vs veh, ZNF268 / Fold change vs veh, ZNF507 / RFU, DGCR2 / Fold change vs veh, DGCR2 / RFU, WDSUB1 / Fold change vs veh, WDSUB1 / Fold change vs veh, HSP90B1 /// MIR3652 / RFU, ADSS / Fold change vs veh, ADSS / RFU, GK / Fold change vs veh, GK / RFU, ZNF148 / Fold change vs veh, ZNF148 / RFU, TAF9 / Fold change vs veh, TAF9 / RFU, SLC1A5 / Fold change vs veh, SLC1A5 / RFU, SLMO2 / Fold change vs veh, SLMO2 / RFU, ABCC4 / Fold change vs veh, ABCC4 / RFU, LOC101060439 /// RAP1B / Fold change vs veh, LOC101060439 /// RAP1B / RFU, RFX7 / Fold change vs veh, RFX7 / RFU, GTPBP10 / Fold change vs veh, GTPBP10 / RFU, CNEP1R1 / Fold change vs veh, CNEP1R1 / RFU, BIVM-ERCC5 /// ERCC5 / Fold change vs veh, BIVM-ERCC5 /// ERCC5 / RFU, ILF3 / Fold change vs veh, ILF3 / RFU 11762660_at / Fold change /veh 11762660_at / RFU VCAN (11757783_s_at) / Fold change /veh VCAN (11757783_s_at) / RFU DDX43 (11728927_at) / Fold change /veh DDX43 (11728927_at) / RFU KRT8 (11758188_x_at) / Fold change /veh KRT8 (11758188_x_at) / RFU NKD1 (11759106_at) / Fold change /veh NKD1 (11759106_at) / RFU SRD5A1 (11742802_a_at) / Fold change /veh SRD5A1 (11742802_a_at) / RFU TPSAB1 /// TPSB2 (11721975_s_at) / Fold change /veh TPSAB1 /// TPSB2 (11721975_s_at) / RFU GSTM3 (11746129_a_at) / Fold change /veh GSTM3 (11746129_a_at) / RFU IL23R (11737362_x_at) / Fold change /veh IL23R (11737362_x_at) / RFU TMEM51 (11727254_a_at) / Fold change /veh TMEM51 (11727254_a_at) / RFU PIWIL2 (11732686_x_at) / Fold change /veh PIWIL2 (11732686_x_at) / RFU ORM1 (11744905_x_at) / Fold change /veh ORM1 (11744905_x_at) / RFU CCDC152 (11743942_at) / Fold change /veh CCDC152 (11743942_at) / RFU ECM1 (11717891_a_at) / Fold change /veh ECM1 (11717891_a_at) / RFU IL23R (11748794_a_at) / Fold change /veh IL23R (11748794_a_at) / RFU TNFAIP8L3 (11732012_x_at) / Fold change /veh TNFAIP8L3 (11732012_x_at) / RFU MBOAT4 (11741988_at) / Fold change /veh MBOAT4 (11741988_at) / RFU 11764193_at / Fold change /veh 11764193_at / RFU TMEM53 (11763286_at) / Fold change /veh TMEM53 (11763286_at) / RFU MAGEB2 (11727129_at) / Fold change /veh MAGEB2 (11727129_at) / RFU TMEM200A (11744735_a_at) / Fold change /veh TMEM200A (11744735_a_at) / RFU CCDC152 (11751479_a_at) / Fold change /veh CCDC152 (11751479_a_at) / RFU FAM211A (11726209_a_at) / Fold change /veh FAM211A (11726209_a_at) / RFU RGS16 (11746705_a_at) / Fold change /veh RGS16 (11746705_a_at) / RFU VCAN (11755009_s_at) / Fold change /veh VCAN (11755009_s_at) / RFU RHOB (11743442_s_at) / Fold change /veh RHOB (11743442_s_at) / RFU RGS16 (11720943_a_at) / Fold change /veh RGS16 (11720943_a_at) / RFU RGS16 (11720944_at) / Fold change /veh RGS16 (11720944_at) / RFU, VPS4B / Fold change vs veh, VPS4B / RFU, CREB1 / Fold change vs veh, CREB1 / RFU, DNAJC13 / Fold change vs veh, DNAJC13 / RFU, GNAQ / Fold change vs veh, GNAQ / RFU, CDK5R1 / Fold change vs veh, CDK5R1 / RFU, ZRANB3 / Fold change vs veh, ZRANB3 / RFU, CUL4A / Fold change vs veh, CUL4A / RFU, CCNY / Fold change vs veh, CCNY / RFU, UFL1 / Fold change vs veh, UFL1 / RFU, COG3 / Fold change vs veh, COG3 / RFU, DIAPH2 / Fold change vs veh, DIAPH2 / RFU, SKA2 / Fold change vs veh, SKA2 / RFU, AFF3 / Fold change vs veh, AFF3 / RFU, LMF1 / Fold change vs veh, LMF1 / RFU, IPO11 / Fold change vs veh, IPO11 / RFU, DFFB / Fold change vs veh, DFFB / RFU, FOXP1 / Fold change vs veh, FOXP1 / RFU, CARD8 / Fold change vs veh, CARD8 / RFU, STRN3 / Fold change vs veh, STRN3 / RFU, ADK / Fold change vs veh, ADK / RFU, RASSF2 / Fold change vs veh, RASSF2 / RFU, WIPF1 / Fold change vs veh, WIPF1 / RFU, LARP1B / Fold change vs veh, LARP1B / RFU, RASA1 / Fold change vs veh, RASA1 / RFU, RB1 / Fold change vs veh, RB1 / RFU, PPFIA1 / Fold change vs veh, PPFIA1 / RFU, MAT2A / Fold change vs veh, MAT2A / RFU, CCT5 / Fold change vs veh, CCT5 / RFU, WDR92 / Fold change vs veh, WDR92 / RFU, CUX1 / Fold change vs veh, CUX1 / RFU, TTC7A / Fold change vs veh, TTC7A / RFU, TMEM135 / Fold change vs veh, TMEM135 / RFU, DEPTOR / Fold change vs veh, DEPTOR / RFU, CPM / Fold change vs veh, CPM / RFU, DNAJB6 / Fold change vs veh, DNAJB6 / RFU, CACNA2D3 / Fold change vs veh, CACNA2D3 / RFU, DTX4 / Fold change vs veh, DTX4 / RFU, TFCP2 / Fold change vs veh, TFCP2 / RFU, GMCL1 /// GMCL1P1 / Fold change vs veh, GMCL1 /// GMCL1P1 / RFU, AEBP2 / Fold change vs veh, AEBP2 / RFU, SNHG1 /// SNORD22 /// SNORD25 /// SNORD26 /// SNORD27 /// SNORD28 /// SNORD29 /// SNORD31 / Fold change vs veh, SNHG1 /// SNORD22 /// SNORD25 /// SNORD26 /// SNORD27 /// SNORD28 /// SNORD29 /// SNORD31 / Fold change (Aza/veh), C12orf56 (ProbeSet 11735607_a_at) / Fold change (ACY-1035/veh), C12orf56 (ProbeSet 11735607_a_at) / Fold change (Aza/veh), FGFR1OP (ProbeSet 11751329_s_at) / Fold change (ACY-1035/veh), FGFR1OP (ProbeSet 11751329_s_at) / Fold change (Aza/veh), VPS36 (ProbeSet 11739960_a_at) / Fold change (ACY-1035/veh), VPS36 (ProbeSet 11739960_a_at) / RFU SYPL1 (11715823_x_at) / Fold change /veh SYPL1 (11715823_x_at) / RFU IGFBP7 (11715501_s_at) / Fold change /veh IGFBP7 (11715501_s_at) / RFU REEP3 (11722064_at) / Fold change /veh REEP3 (11722064_at) / RFU IGLL1 (11728026_x_at) / Fold change /veh IGLL1 (11728026_x_at): dose or concentration left out as unconfirmed. The following applies: ProbeSet 11739263_x_at; LIST D.

Structures are written as SMILES.

Regarding `Nc1ccc(-c2cccs2)cc1NC(=O)c1ccc2c(c1)cc(C1CC1)n2CCN1CCOCC1` [ACY-1035], the “RFU, VPS4B” value turned out to be 70.19 RFU.
